The text below walks through data of ChEMBL document CHEMBL1152101, “Boric acid effect ont he hydrolysis of 4-nitrophenyl 2,3-dihydroxybenzoate: mimic of borate inhibition of serine proteases” (Bioorg Med Chem Lett, 1993).

Data set [1] is described as follows: Tested for hydrolysis in presence of boric acid by UV spectrophotometry, dissociation constant was evaluated at the pH < 8. In kind it is ADME.
The nature of data set [2]: pKa value was determined. Format: physicochemical.
The target in data set [3] is T1, Chymotrypsinogen A (Bos taurus, UniProt P00766). Nature of the data set: Tested for inhibition of hydrolysis in presence of alpha-chymotrypsin and phenylboronic acid(Apparent inhibition constant).
The nature of data set [4]: Tested for hydrolysis in presence of boric acid, rate constant was evaluated at the pH 8.5. Format: ADME. Particulars: buffer.
The nature of data set [5]: Tested for hydrolysis in presence of boric acid, dissociation constant was evaluated at the pH 8.5(Apparent inhibition constant). Format: ADME.
Data set [6] can be described thus: Tested for hydrolysis in presence of boric acid, rate constant was evaluated at the pH 9.5. In kind it is ADME. The conditions noted are these: buffer.
Data set [7] can be described thus: Tested for hydrolysis in presence of phenylboronic acid, rate constant was evaluated at the pH 9.5. In kind it is ADME. The conditions noted are these: buffer.
Data set [8] can be described thus: Tested for hydrolysis in presence of boric acid, dissociation constant was evaluated at the pH 9.5(Apparent inhibition constant). Format: ADME.
Data set [9] can be described thus: Hydrolysis rate constant was determined. In kind it is ADME.
Data set [10] deals with T1, Chymotrypsinogen A. The data set can be described thus: Tested for inhibition of hydrolysis in presence of alpha-chymotrypsin and […](Apparent inhibition constant).
A short description of data set [11]: Tested for hydrolysis in presence of phenylboronic acid, dissociation constant was evaluated at the pH 9.5(Apparent inhibition constant). In kind it is ADME.

Regarding `O=C(Oc1ccc([N+](=O)[O-])cc1)c1cccc(O)c1O`, the KB is 0.00005 s⁻¹ in [1], 0.000018 s⁻¹ in [4], 0.000022 s⁻¹ in data set [6] and 0.000017 s⁻¹ in data set [7]. This compound also registered a pKa in [2] of 8.8. Further, the Ki was 200 µM on Chymotrypsinogen A [3]; 380 µM in [5]; 230 µM in data set [8]; 40000 µM on Chymotrypsinogen A [10]; 250 µM in data set [11]. The K1 in data set [9] was found to be 0.000033 s⁻¹. In data set [9], this compound registered a K2 of 0.00026 s⁻¹.

What is called pKa is the pH at which an ionisable group is half protonated. Lower therefore signals a group that gives up its proton readily.
